Some results are limits rather than exact numbers.

The target in one assay is T1, JAK 3 (Homo sapiens, UniProt P52333).
T1 sequence (P52333 1-1124): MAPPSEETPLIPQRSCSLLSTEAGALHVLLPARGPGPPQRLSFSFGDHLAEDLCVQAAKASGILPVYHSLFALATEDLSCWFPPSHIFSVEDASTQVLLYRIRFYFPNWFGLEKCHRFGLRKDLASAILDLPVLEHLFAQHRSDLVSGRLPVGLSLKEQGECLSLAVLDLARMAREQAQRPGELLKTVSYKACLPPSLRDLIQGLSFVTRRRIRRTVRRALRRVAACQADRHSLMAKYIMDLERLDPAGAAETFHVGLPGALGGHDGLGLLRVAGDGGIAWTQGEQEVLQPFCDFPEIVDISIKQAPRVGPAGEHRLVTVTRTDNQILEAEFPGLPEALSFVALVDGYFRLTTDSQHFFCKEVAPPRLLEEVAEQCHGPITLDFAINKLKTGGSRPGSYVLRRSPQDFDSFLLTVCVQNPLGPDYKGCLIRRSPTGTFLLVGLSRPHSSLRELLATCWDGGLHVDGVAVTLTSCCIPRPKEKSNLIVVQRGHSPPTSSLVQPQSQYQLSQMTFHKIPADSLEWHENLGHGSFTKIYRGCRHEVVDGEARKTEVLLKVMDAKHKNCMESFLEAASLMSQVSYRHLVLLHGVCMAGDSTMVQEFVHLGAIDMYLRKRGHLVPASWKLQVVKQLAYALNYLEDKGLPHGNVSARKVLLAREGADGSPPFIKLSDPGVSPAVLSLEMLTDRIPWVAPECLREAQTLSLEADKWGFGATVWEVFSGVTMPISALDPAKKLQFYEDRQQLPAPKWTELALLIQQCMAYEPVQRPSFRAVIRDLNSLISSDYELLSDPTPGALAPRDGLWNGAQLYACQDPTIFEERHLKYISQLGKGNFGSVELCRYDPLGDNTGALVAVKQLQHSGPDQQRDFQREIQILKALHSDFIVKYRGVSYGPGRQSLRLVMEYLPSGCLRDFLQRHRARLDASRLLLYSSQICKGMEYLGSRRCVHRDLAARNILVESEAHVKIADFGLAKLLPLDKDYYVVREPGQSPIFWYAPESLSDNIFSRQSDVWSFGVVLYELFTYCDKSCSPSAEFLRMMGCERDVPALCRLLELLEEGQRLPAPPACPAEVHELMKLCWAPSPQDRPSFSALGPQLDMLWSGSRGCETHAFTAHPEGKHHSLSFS
The assay is described as follows: Biochemical potency on JAK3, TR-FRET LANCE Ultra kinase assay (examples 1-99). As to conditions: ATP at Km (0.2 μM), read-out: JAK3 inhibitory activity (pIC50 class) (converted). An outline of the steps: (§1)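 Inhibition of each JAK family kinase is measured as loss of phosphotyrosine signal on a ULight peptide, detected by Eu-PT66 antibody (final 0.5 nM) via time-resolved FRET. ATP sits near Km for each isoform. Dose–response spans 20 μM downward in 5-fold steps, 11 points.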
(Time-resolved FRET reads energy transfer from a long-lived donor to a nearby acceptor.)

The target of a further assay is JAK 2 (Homo sapiens, UniProt O60674). The assay is described as follows: Biochemical potency on JAK2, TR-FRET LANCE Ultra kinase assay (examples 1-99). As to conditions: ATP at Km (0.7 μM), read-out: JAK2 inhibitory activity (pIC50 class) (converted). An outline of the steps:
as §1

For the next assay, the target named is TYK2 (Homo sapiens, UniProt P29597). As to the kind of experiment: Biochemical potency on Tyk2, TR-FRET LANCE Ultra kinase assay (examples 1-99). As to conditions: ATP at Km (12 μM), read-out: Tyk2 inhibitory activity (pIC50 class) (converted). An outline of the steps: as §1
Sequence of TYK2 (P29597 whole entry): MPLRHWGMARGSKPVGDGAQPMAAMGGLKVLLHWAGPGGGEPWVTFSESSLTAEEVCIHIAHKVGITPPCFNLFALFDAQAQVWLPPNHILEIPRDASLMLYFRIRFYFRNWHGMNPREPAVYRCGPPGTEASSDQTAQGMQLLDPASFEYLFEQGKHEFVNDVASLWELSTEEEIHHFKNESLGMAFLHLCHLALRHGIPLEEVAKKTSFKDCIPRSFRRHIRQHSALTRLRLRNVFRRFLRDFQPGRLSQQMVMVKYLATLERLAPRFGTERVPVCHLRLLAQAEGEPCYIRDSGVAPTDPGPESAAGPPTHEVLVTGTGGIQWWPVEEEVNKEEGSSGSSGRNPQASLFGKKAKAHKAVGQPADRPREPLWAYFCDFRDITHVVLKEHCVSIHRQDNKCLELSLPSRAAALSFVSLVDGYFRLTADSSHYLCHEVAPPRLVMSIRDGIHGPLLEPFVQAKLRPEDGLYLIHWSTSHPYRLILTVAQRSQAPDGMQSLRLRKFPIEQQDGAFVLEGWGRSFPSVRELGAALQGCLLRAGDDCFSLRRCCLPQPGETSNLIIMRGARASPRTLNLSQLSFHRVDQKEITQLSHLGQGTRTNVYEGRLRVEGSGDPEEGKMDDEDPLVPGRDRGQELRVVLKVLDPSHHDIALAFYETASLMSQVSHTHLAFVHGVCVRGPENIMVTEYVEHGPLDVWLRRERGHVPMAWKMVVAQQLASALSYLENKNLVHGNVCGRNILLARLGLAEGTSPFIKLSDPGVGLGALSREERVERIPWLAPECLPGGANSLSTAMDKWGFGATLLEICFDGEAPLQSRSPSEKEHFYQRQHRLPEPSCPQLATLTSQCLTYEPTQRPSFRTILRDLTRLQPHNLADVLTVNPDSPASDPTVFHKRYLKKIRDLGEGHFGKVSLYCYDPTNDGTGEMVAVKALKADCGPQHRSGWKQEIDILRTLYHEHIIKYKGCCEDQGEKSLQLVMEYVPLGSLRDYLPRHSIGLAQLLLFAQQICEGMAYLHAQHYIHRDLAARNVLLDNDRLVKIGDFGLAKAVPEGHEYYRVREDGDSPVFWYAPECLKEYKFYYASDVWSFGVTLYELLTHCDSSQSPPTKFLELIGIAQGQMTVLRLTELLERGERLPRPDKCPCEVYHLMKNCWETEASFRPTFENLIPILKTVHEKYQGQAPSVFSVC
The target of a further assay is JAK 1 (Homo sapiens, UniProt P23458). As to the kind of experiment: Biochemical potency on JAK1, TR-FRET LANCE Ultra kinase assay (examples 1-99). As to conditions: ATP at Km (20 μM), read-out: JAK1 inhibitory activity (pIC50 class) (converted). An outline of the steps:
as §1

Sequence of JAK 1 (P23458 whole entry): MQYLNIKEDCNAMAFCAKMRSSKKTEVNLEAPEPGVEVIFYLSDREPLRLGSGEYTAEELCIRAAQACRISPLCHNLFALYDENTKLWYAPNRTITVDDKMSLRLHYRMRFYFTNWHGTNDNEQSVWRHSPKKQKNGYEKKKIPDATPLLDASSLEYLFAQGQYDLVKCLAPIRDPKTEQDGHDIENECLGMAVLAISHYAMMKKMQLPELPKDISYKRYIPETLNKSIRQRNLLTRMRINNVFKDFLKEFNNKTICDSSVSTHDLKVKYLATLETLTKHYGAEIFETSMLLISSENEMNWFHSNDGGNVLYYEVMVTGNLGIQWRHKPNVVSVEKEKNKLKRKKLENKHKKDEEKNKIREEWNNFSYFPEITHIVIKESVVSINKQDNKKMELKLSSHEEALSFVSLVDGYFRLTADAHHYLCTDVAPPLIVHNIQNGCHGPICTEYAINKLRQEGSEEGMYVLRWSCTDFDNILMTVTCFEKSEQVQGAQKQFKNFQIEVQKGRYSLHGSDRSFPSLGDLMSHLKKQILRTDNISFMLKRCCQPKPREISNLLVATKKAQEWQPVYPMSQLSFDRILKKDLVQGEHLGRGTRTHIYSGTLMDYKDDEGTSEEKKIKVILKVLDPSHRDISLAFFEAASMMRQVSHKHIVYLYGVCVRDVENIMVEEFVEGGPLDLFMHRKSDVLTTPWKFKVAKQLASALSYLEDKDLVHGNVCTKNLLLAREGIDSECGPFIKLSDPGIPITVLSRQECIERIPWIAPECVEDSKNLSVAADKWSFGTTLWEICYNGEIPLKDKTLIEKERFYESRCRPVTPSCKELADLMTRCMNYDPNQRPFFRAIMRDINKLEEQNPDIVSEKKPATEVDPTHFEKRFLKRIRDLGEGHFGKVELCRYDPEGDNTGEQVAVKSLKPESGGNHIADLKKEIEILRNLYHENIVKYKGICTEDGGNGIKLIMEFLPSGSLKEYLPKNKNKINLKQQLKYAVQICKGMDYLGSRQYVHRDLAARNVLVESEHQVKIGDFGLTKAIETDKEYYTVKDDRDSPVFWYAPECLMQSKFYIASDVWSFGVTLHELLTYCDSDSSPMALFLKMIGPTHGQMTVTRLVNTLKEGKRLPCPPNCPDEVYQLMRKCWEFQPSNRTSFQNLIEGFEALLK
Sequence of JAK 2 (O60674 whole entry): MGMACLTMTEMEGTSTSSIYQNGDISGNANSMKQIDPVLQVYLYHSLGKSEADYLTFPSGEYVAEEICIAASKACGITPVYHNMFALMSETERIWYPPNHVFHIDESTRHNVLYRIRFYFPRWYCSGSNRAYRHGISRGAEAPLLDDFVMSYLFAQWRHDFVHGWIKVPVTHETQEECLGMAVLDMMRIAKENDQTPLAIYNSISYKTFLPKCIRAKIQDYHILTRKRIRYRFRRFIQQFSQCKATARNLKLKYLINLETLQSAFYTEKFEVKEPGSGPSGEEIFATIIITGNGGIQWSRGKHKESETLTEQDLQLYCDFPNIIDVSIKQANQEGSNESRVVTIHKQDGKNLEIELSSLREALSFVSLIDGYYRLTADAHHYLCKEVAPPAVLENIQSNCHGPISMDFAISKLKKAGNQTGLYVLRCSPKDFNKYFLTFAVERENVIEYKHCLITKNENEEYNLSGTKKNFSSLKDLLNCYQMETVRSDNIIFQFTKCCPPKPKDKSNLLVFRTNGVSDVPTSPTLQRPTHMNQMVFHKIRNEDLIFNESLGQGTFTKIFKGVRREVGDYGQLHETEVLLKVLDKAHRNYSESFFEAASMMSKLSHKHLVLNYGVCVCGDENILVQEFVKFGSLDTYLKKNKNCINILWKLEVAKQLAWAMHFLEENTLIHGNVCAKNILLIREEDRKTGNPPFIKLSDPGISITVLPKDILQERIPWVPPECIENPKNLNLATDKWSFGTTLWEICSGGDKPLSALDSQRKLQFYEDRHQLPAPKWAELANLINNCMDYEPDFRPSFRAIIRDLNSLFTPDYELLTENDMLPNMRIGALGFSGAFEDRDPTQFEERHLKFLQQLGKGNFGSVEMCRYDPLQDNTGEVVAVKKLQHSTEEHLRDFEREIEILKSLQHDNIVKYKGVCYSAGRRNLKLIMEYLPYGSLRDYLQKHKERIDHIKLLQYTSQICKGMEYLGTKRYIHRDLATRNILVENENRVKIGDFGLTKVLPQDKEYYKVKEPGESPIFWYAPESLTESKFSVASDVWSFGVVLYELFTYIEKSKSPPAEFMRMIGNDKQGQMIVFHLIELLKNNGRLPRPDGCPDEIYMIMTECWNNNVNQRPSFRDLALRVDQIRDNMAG

With `COc1ccc(Cl)cc1-n1nc(NC(C)=O)c2cnc(-c3cnn4cccnc34)cc21` [Example 40, N-(1-(5-chloro-2-methoxyphenyl)-6-(pyrazolo[1,5-a]pyrimidin-3-yl)-1H-pyrazolo[4,3-c]pyridin-3-yl)acetamide], the IC50 on JAK 3 was not above 5.01 nM; at JAK 2 it was not above 5.01 nM; at TYK2, 5.01 to 50.1 nM; on JAK 1, not above 5.01 nM.

`Cc1nn(-c2cc(S(C)(=O)=O)ccc2OC(F)F)c2cc(-c3cnn4cccnc34)ncc12` [Example 26, 1-(2-(difluoromethoxy)-5-(methylsulfonyl)phenyl)-3-methyl-6-(pyrazolo[1,5-a]pyrimidin-3-yl)-1H-pyrazolo[4,3-c]pyridine]: the IC50 was not above 5.01 nM at JAK 3, not above 5.01 nM at JAK 2, 5.01 to 50.1 nM on TYK2 and not above 5.01 nM on JAK 1.

In the case of `COc1ccc(C(F)F)cc1-n1nc(NCCN(C)C)c2cnc(Nc3ncc[nH]c3=O)cc21` [Example 98, 3-((1-(5-(difluoromethyl)-2-methoxyphenyl)-3-((2-(dimethylamino)ethyl)amino)-1H-pyrazolo[4,3-c]pyridin-6-yl)amino)pyrazin-2(1H)-one], the IC50 on JAK 3, at JAK 2, at TYK2 and on JAK 1 was 5.01 to 50.1 nM throughout.

As to `COc1ccc(S(=O)(=O)NCC2CN(C)C2)cc1-n1nc(C)c2cnc(-c3cnn4cccnc34)cc21` [Example 17, 4-methoxy-3-(3-methyl-6-(pyrazolo[1,5-a]pyrimidin-3-yl)-1H-pyrazolo[4,3-c]pyridin-1-yl)-N-((1-methylazetidin-3-yl)methyl)benzenesulfonamide], the IC50 is more than 50.1 nM on JAK 3, 5.01 to 50.1 nM at JAK 2, more than 50.1 nM on TYK2 and 5.01 to 50.1 nM at JAK 1.

Take `COc1cccc(S(=O)(=O)c2ccc(OC(F)F)c(-n3nc(C)c4cnc(-c5cnn6cccnc56)cc43)c2)c1` [Example 25, 1-(2-(difluoromethoxy)-5-((3-methoxyphenyl)sulfonyl)phenyl)-3-methyl-6-(pyrazolo[1,5-a]pyrimidin-3-yl)-1H-pyrazolo[4,3-c]pyridine]: the IC50 at JAK 3 is not above 5.01 nM; at JAK 2, not above 5.01 nM; on TYK2, 5.01 to 50.1 nM; at JAK 1, 5.01 to 50.1 nM.

Regarding `COCCS(=O)(=O)c1ccc(OC(F)F)c(-n2nc(C)c3cnc(Nc4ncc[nH]c4=O)cc32)c1` [Example 95, 3-((1-(2-(difluoromethoxy)-5-((2-methoxyethyl)sulfonyl)phenyl)-3-methyl-1H-pyrazolo[4,3-c]pyridin-6-yl)amino)pyrazin-2(1H)-one], the IC50 on JAK 3 was not above 5.01 nM; at JAK 2, not above 5.01 nM; on TYK2, 5.01 to 50.1 nM; on JAK 1 it was 5.01 to 50.1 nM.

For `COc1ccc(Cl)cc1-n1nc(C(=O)N[C@H]2C[C@H](N(C)C)C2)c2cnc(-c3cnn4cccnc34)cc21` [Example 80, 1-(5-chloro-2-methoxyphenyl)-N-((1r,3r)-3-(dimethylamino)cyclobutyl)-6-(pyrazolo[1,5-a]pyrimidin-3-yl)-1H-pyrazolo[4,3-c]pyridine-3-carboxamide], the IC50 on JAK 3, on JAK 2, at TYK2 and at JAK 1 was 5.01 to 50.1 nM each time.

Consider `Cc1nn(-c2cc(S(=O)(=O)CCN3CCCCC3)ccc2OC(F)F)c2cc(-c3cnn4cccnc34)ncc12` [Example 23, 1-(2-(difluoromethoxy)-5-((2-(piperidin-1-yl)ethyl)sulfonyl)phenyl)-3-methyl-6-(pyrazolo[1,5-a]pyrimidin-3-yl)-1H-pyrazolo[4,3-c]pyridine], for which the IC50 at JAK 3 was 5.01 to 50.1 nM; at JAK 2, 5.01 to 50.1 nM; on TYK2, more than 50.1 nM; on JAK 1 it was 5.01 to 50.1 nM.

(Values after patent publication US20240279240A1, “HETEROCYCLIC DERIVATIVES AS JANUS KINASE INHIBITORS” (CHIESI FARMACEUTICI S.P.A., priority 2021, published 2024).)
